According to ChEMBL document CHEMBL4265876, “Natural Products with Heteroatom-Rich Ring Systems” (J Nat Prod, 2017):

How the values were obtained:
T-cell = assay: Inhibition of ConA-induced cell proliferation of BALB/c mouse T-lymphocytes assessed as reduction in [3H]thymidine incorporation incubated for 48 hrs by beta scintillation counting method; assay type: functional
L1210 = assay: Cytotoxicity against mouse L1210 cells; assay type: functional, cell-based
V79 = assay: Cytotoxicity against chinese hamster V79 cells; assay type: cell-based; conditions: Cricetulus griseus
SF-268 = assay: Cytotoxicity against human SF268 cells assessed as cell killing at 50 uM relative to control; assay type: functional
[1] = Inhibition of protein kinase A (unknown origin); set-up: species or system Homo sapiens
Staphylococcus aureus = assay: Antibacterial activity against Staphylococcus aureus assessed as inhibition zone at 50 ug/disk; assay type: functional; conditions: read-out: IZ
Escherichia coli = assay: Antibacterial activity against Escherichia coli assessed as inhibition zone at 50 ug/disk; assay type: functional; conditions: read-out: IZ

## CO[C@H]1C[C@H](O[C@@H]2[C@@H](C)O[C@@]3(C[C@H]2OC)OCO[C@@H]2C[C@H](O[C@@H](C)[C@@]4(O)CC[C@H]5[C@@H]6CC=C7C[C@@H](O)CC[C@]7(C)[C@H]6CC[C@@]54C)O[C@H](C)[C@H]2O3)O[C@H](C)[C@H]1O[C@H]1C[C@@H](O)[C@H](O[C@H]2C[C@H](OC)[C@H](O[C@H]3C[C@@H](OC)[C@H](O)[C@@H](C)O3)[C@@H](C)O2)[C@@H](C)O1
T-cell
  IC50: 290 to 1970 nM

## COc1cc(CCN(C)C)c2c(c1O)SSC(C)S2 (configuration not stated)
L1210
  IC50: 700 nM
V79
  IC50: 140 nM

## CC[C@H](C)C1=C(O)[N@@+]2([O-])Oc3ccc(-c4c(O)c(O)c(-c5ccc(OC(C)=O)cc5)c(OC(C)=O)c4OC(C)=O)cc3O[C@@]2([C@@H](C)CC)C(=O)N1O
SF-268
  Activity: 95%

## COc1c(OC)c2c(c(CCN)c1SC)SSSSS2
[1]
  IC50: > 25 µg/mL

## NCCc1cc(O)c(O)c2c1SSSSS2
[1]
  IC50: > 25 µg/mL

## CO[C@H]1C[C@H](O[C@H]2[C@@H](OC)C[C@H](O[C@H]3[C@H](O)C[C@H](O[C@H]4[C@@H](OC)C[C@H](O[C@@H]5[C@@H](C)O[C@@]6(C[C@H]5OC)OCO[C@@H]5C[C@H](O[C@@H](C)[C@@]7(O)CC[C@H]8[C@@H]9CC=C%10C[C@@H](O)CC[C@]%10(C)[C@H]9CC[C@@]87C)O[C@H](C)[C@H]5O6)O[C@@H]4C)O[C@@H]3C)O[C@@H]2C)O[C@H](C)[C@H]1OC(C)=O
T-cell
  IC50: 290 to 1970 nM

## COC1=C[C@@H](C)O[C@@H](O[C@H]2CC[C@@]3(C)C(=CC[C@@H]4[C@@H]3CC[C@@]3(C)[C@H]4CC[C@]3(O)[C@H](C)O[C@H]3C[C@H]4OCO[C@@]5(C[C@@H](OC)[C@H](O[C@H]6C[C@H](OC)[C@H](O[C@H]7C[C@@H](O)[C@H](O[C@H]8C[C@H](OC)[C@H](O[C@H]9C[C@H](O)[C@H](OC(C)=O)[C@@H](C)O9)[C@@H](C)O8)[C@@H](C)O7)[C@@H](C)O6)[C@@H](C)O5)O[C@@H]4[C@@H](C)O3)C2)C1=O
T-cell
  IC50: 290 to 1970 nM

## COc1cc(CCN(C)C)c2sc3c(O)c(OC)cc(CCN(C)C)c3ssc2c1O [LISSOCLIBADIN 4]
Staphylococcus aureus
  zone of inhibition at 50 µg/disc: 13.1 mm
Escherichia coli
  zone of inhibition at 50 µg/disc: 15.7 mm

## COc1cc(CCN(C)C)c2sc3c(OC)c(OC)c(SC)c(CCN(C)C)c3ssc2c1O [LISSOCLIBADIN 5]
Staphylococcus aureus
  zone of inhibition at 50 µg/disc: 15.8 mm
Escherichia coli
  zone of inhibition at 50 µg/disc: 11.6 mm

## CC[C@H](C)C1=C(OC(C)=O)[N@+]2([O-])Oc3ccc(-c4c(O)c(O)c(-c5ccc(OC(C)=O)cc5)c(OC(C)=O)c4OC(C)=O)cc3O[C@@]2([C@@H](C)CC)C(=O)N1O
SF-268
  Activity: 93%

## COC1=C[C@@H](C)O[C@@H](O[C@H]2CC[C@@]3(C)C(=CC[C@@H]4[C@@H]3CC[C@@]3(C)[C@H]4CC[C@]3(O)[C@H](C)O[C@H]3C[C@H]4OCO[C@@]5(C[C@@H](OC)[C@H](O[C@H]6C[C@H](O)[C@H](O[C@H]7C[C@@H](O)[C@H](O[C@H]8C[C@H](OC)[C@H](O[C@@H]9O[C@H](C)[C@H](O)[C@H](OC)[C@H]9OC(C)=O)[C@@H](C)O8)[C@@H](C)O7)[C@@H](C)O6)[C@@H](C)O5)O[C@@H]4[C@@H](C)O3)C2)C1=O
T-cell
  IC50: 290 to 1970 nM

## COc1c(OC)c2c(c(CCN)c1SC)SSS2
[1]
  IC50: > 25 µg/mL

## CC[C@H](C)C1=C(O)[N@+]2([O-])Oc3ccc(-c4c(O)c(O)c(-c5ccc(OC(C)=O)cc5)c(OC(C)=O)c4OC(C)=O)cc3O[C@@]2([C@@H](C)CC)C(=O)N1O
SF-268
  Activity: 96%

## COC1=C[C@@H](C)O[C@@H](O[C@H]2CC[C@@]3(C)C(=CC[C@@H]4[C@@H]3CC[C@@]3(C)[C@H]4CC[C@]3(O)[C@H](C)O[C@H]3C[C@H]4OCO[C@@]5(C[C@@H](OC)[C@H](O[C@H]6C[C@H](OC)[C@H](O[C@H]7C[C@@H](O)[C@H](O[C@H]8C[C@H](OC)[C@H](O[C@H]9C[C@@H](OC)[C@H](O)[C@@H](C)O9)[C@@H](C)O8)[C@@H](C)O7)[C@@H](C)O6)[C@@H](C)O5)O[C@@H]4[C@@H](C)O3)C2)C1=O
T-cell
  IC50: 290 to 1970 nM
